Reference: patent publication US7074789B2, “Kinase inhibitors” (Amgen Inc., priority 1999, dated 2006)

Assays:
Assay type in all cases: biochemical
Lyn = target: T1, Lyn (Homo sapiens, UniProt P07948); assay: Kinase inhibition assay (33P transfer), Lyn; conditions: Table 6, Lyn-1 kinase inhibition class
T1 construct: Kinases are expressed as either kinase domains or full length constructs; made in house
How it was run: (§1)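 Recombinant kinase domains or full-length GST- or His-tagged constructs, from E. coli or baculovirus/High Five cells, sometimes with regulatory polypeptides. Transfer of 33P from ATP to plate-bound poly(Glu,Tyr) 4:1 or poly(Arg,Ser) 3:1 counted by liquid scintillation after phosphoric acid wash; IC50 is the concentration halving incorporation.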

Src = target: T2, Src (Homo sapiens, UniProt P12931); assay: Kinase inhibition assay (33P transfer), Src; conditions: Table 6, Src-1 kinase inhibition class
T2 construct: Kinases are expressed as either kinase domains or full length constructs; made in house
How it was run: as §1

Fyn = target: T3, Fyn (Homo sapiens, UniProt P06241); assay: Kinase inhibition assay (33P transfer), Fyn; conditions: read-out: Fyn-1
T3 construct: Kinases are expressed as either kinase domains or full length constructs; made in house
How it was run: as §1

Flt-1 = target: T4, Flt-1 (Homo sapiens, UniProt P17948); assay: Kinase inhibition assay (33P transfer), Flt-1
T4 construct: Kinases are expressed as either kinase domains or full length constructs; made in house
How it was run: as §1

EPHB4 = target: T5, EPHB4 (Homo sapiens, UniProt P54760); assay: Kinase inhibition assay (33P transfer), EPHB4; conditions: read-out: EPHB4-1
T5 construct: Kinases are expressed as either kinase domains or full length constructs; made in house
T5 sequence (P54760 16-987): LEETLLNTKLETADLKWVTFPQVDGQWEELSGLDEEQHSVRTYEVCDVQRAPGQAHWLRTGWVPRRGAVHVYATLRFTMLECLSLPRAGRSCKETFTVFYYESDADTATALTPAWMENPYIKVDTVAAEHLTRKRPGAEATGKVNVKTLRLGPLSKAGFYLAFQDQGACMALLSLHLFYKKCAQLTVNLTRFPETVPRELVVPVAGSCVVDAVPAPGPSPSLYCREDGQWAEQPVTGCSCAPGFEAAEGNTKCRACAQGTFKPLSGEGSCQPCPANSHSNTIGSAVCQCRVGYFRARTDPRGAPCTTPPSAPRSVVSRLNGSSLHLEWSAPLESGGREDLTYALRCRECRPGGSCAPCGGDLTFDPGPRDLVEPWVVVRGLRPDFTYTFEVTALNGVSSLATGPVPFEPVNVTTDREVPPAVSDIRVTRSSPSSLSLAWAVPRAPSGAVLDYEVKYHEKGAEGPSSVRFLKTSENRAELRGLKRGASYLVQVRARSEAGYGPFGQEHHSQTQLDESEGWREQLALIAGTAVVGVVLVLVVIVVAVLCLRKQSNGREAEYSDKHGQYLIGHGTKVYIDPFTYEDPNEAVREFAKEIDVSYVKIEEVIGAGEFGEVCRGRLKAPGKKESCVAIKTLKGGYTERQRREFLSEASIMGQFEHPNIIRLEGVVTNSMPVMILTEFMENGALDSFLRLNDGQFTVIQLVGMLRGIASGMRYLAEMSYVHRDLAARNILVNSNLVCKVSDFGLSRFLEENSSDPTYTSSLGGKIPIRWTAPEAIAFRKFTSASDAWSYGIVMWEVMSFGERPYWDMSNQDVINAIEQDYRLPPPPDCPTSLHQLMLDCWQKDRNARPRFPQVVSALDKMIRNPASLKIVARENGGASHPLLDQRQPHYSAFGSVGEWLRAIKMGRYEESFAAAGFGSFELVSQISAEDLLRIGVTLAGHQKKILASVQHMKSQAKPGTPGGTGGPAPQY

Hck-1 = target: T6, Hck-1 (Homo sapiens, UniProt P08631); assay: Kinase inhibition assay (33P transfer), Hck; conditions: Table 6, Hck-1 kinase inhibition class
T6 construct: Kinases are expressed as either kinase domains or full length constructs; made in house

ErbB4 = target: T7, ErbB4 (Homo sapiens, UniProt Q15303); assay: Kinase inhibition assay (33P transfer), ErbB4; conditions: read-out: ErbB4-1
T7 construct: Kinases are expressed as either kinase domains or full length constructs; made in house

Ret-1 = target: T8, Ret-1 (Homo sapiens, UniProt P07949); assay: Kinase inhibition assay (33P transfer), Ret; conditions: Table 6, Ret-1 kinase inhibition class
T8 construct: Kinases are expressed as either kinase domains or full length constructs; made in house

FGFR1 = target: T9, FGFR1 (Homo sapiens, UniProt P11362); assay: Kinase inhibition assay (33P transfer), FGFR1; conditions: read-out: FGFR1-1
T9 construct: Kinases are expressed as either kinase domains or full length constructs; made in house

Lck = target: T10, Lck (Homo sapiens, UniProt P06239); assay: Kinase inhibition assay (33P transfer), Lck; conditions: read-out: Lck-1
T10 construct: Kinases are expressed as either kinase domains or full length constructs; made in house
How it was run: (§2)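 Kinase domains or full-length kinases, GST- or His-tagged and expressed in E. coli or baculovirus/High Five cells, transferred 33PO4 from ATP onto plate-bound poly(Glu,Tyr) 4:1 or poly(Arg,Ser) 3:1. After incubation, plates were washed with 0.5% phosphoric acid and counted by liquid scintillation.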

Zap-70 = target: T11, Zap-70 (Homo sapiens, UniProt P43403); assay: Kinase inhibition assay (33P transfer), Zap-70; conditions: read-out: Zap-1
T11 construct: Kinases are expressed as either kinase domains or full length constructs; made in house
T11 sequence (P43403 1-619): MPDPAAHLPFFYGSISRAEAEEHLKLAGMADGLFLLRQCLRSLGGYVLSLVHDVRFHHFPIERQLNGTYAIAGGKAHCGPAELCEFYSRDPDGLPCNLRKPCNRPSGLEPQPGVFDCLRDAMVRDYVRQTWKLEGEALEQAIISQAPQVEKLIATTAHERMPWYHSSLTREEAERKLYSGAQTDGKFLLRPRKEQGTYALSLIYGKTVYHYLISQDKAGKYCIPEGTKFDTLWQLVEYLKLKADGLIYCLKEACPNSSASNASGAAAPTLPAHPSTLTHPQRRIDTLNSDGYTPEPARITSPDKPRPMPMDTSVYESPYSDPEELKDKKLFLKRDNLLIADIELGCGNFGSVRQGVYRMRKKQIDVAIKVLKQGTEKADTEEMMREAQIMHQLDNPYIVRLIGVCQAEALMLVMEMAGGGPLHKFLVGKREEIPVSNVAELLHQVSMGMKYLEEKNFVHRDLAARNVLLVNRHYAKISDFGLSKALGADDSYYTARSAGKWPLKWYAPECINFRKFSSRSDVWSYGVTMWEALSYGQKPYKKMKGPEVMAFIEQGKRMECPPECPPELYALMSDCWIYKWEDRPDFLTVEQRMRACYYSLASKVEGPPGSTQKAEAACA
How it was run: as §2

Itk = target: T12, Itk (Homo sapiens, UniProt Q08881); assay: Kinase inhibition assay (33P transfer), Itk; conditions: read-out: Itk-1
T12 construct: Kinases are expressed as either kinase domains or full length constructs; made in house
T12 sequence (Q08881 1-620): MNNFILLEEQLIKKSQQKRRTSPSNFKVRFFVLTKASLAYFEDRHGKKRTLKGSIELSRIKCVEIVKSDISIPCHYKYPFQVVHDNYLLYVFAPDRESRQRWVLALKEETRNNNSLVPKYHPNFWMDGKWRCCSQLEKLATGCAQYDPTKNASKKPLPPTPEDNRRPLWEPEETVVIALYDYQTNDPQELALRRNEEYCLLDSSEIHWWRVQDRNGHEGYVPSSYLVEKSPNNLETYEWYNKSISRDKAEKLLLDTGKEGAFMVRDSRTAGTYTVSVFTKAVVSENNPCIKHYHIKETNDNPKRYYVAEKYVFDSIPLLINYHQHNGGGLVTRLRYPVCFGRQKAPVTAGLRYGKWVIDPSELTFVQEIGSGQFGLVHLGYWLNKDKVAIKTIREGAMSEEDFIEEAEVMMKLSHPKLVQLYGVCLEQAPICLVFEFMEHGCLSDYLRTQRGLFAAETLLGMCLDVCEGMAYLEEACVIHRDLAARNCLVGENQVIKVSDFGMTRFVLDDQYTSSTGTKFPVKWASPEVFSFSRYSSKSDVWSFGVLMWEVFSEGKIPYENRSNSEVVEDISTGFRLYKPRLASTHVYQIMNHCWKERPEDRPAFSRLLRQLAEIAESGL
How it was run: as §1

EGFR = target: T13, EGFR (Homo sapiens, UniProt P00533); assay: Kinase inhibition assay (33P transfer), EGFR; conditions: Table 2, kinase inhibition class; read-out: EGFR-1
T13 construct: Kinases are expressed as either kinase domains or full length constructs; made in house
How it was run: as §1

ErbB2 = target: T14, ErbB2 (Homo sapiens, UniProt P04626); assay: Kinase inhibition assay (33P transfer), ErbB2; conditions: read-out: ErbB2-2
T14 construct: Kinases are expressed as either kinase domains or full length constructs; made in house
How it was run: as §1

Kdr = target: T15, Kdr (Homo sapiens, UniProt P35968); assay: Kinase inhibition assay (33P transfer), Kdr; conditions: read-out: KDR-1
T15 construct: Kinases are expressed as either kinase domains or full length constructs; made in house
How it was run: as §2

Tek = target: T16, Tek (Homo sapiens, UniProt Q02763); assay: Kinase inhibition assay (33P transfer), Tek; conditions: read-out: Tek-1
T16 construct: Kinases are expressed as either kinase domains or full length constructs; made in house
How it was run: as §1

c-Met = target: T17, c-Met (Homo sapiens, UniProt P08581); assay: Kinase inhibition assay (33P transfer), c-Met; conditions: Table 2, kinase inhibition class; read-out: Met-1
T17 construct: Kinases are expressed as either kinase domains or full length constructs; made in house
How it was run: as §1

AKT = target: T18, AKT (Homo sapiens, UniProt Q9Y243); assay: Kinase inhibition assay (33P transfer), AKT; conditions: Table 2, kinase inhibition class; read-out: AKT3-1
T18 construct: Kinases are expressed as either kinase domains or full length constructs; made in house
How it was run: as §2

IGFR-1 = target: T19, IGFR-1 (Homo sapiens, UniProt P08069); assay: Kinase inhibition assay, IGFR-1 (Table 2); conditions: Table 2, kinase inhibition class
T19 construct: Kinases are expressed as either kinase domains or full length constructs; made in house

PDGFRB = target: T20, PDGFRB (Homo sapiens, UniProt P09619); assay: Kinase inhibition assay (33P transfer), PDGFRB; conditions: read-out: PDGFRB-1
T20 construct: Kinases are expressed as either kinase domains or full length constructs; made in house

T4 sequence (P17948 27-1338, species assumed): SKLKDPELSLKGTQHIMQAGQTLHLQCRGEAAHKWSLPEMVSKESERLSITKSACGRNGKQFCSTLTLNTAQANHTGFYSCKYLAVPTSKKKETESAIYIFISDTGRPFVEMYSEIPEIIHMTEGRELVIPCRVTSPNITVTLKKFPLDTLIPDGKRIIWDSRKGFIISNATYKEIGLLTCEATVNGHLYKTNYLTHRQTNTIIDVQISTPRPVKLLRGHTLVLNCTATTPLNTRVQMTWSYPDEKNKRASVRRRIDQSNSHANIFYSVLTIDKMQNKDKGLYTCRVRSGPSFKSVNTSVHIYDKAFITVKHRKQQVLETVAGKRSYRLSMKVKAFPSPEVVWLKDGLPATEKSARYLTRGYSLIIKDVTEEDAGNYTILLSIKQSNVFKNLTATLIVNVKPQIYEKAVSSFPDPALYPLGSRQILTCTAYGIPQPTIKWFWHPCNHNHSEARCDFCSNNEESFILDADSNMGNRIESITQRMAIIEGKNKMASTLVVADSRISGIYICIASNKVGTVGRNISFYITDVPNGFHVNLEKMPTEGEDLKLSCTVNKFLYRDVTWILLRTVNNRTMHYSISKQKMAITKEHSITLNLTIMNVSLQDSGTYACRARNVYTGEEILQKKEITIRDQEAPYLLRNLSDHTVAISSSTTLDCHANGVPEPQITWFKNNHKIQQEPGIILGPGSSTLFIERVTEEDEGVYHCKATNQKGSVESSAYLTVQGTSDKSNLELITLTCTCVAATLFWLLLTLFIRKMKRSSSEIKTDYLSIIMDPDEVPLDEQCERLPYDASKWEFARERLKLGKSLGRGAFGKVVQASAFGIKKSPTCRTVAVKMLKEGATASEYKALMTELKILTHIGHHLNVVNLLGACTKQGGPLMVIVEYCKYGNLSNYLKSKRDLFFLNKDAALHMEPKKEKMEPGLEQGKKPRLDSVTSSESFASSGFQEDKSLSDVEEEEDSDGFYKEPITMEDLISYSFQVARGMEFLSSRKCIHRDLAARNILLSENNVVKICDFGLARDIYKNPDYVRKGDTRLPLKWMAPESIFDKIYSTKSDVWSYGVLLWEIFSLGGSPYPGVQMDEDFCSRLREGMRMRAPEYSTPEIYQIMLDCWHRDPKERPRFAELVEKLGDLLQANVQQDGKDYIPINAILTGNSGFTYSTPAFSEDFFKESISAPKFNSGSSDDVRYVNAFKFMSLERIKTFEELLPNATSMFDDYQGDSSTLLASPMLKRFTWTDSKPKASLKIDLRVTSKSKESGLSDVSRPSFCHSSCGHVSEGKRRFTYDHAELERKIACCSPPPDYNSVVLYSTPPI
T14 sequence (P04626 23-1255, species assumed): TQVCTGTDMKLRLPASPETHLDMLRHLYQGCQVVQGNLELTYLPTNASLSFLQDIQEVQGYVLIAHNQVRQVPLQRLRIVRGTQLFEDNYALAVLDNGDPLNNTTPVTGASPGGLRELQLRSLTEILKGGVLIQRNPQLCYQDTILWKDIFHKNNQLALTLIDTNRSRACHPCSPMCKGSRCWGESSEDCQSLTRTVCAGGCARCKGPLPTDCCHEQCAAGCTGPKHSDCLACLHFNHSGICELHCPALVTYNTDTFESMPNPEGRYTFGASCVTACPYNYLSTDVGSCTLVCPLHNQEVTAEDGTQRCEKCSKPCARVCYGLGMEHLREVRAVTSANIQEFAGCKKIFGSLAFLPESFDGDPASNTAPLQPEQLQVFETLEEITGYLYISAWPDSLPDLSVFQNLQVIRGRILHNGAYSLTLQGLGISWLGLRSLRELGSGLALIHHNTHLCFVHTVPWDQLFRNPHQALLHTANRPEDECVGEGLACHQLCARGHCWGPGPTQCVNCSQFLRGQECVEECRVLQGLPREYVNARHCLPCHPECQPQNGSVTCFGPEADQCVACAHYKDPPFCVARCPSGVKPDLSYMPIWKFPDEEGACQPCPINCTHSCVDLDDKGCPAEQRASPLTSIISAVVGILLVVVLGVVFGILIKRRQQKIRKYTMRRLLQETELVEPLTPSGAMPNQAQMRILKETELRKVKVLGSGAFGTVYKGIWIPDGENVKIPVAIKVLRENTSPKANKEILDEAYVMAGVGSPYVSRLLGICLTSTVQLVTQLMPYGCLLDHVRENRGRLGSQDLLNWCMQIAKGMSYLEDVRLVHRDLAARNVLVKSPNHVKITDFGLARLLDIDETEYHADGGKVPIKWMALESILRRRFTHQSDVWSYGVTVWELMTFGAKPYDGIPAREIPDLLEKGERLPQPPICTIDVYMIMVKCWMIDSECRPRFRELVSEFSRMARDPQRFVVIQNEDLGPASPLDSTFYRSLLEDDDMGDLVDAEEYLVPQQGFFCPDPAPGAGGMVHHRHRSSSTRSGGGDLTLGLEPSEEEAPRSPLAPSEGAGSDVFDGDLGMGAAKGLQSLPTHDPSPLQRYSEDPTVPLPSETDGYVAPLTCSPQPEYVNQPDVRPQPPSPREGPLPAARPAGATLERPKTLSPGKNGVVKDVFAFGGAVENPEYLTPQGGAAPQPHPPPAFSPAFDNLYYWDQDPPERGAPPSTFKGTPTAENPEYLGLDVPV
T8 sequence (P07949 29-1114): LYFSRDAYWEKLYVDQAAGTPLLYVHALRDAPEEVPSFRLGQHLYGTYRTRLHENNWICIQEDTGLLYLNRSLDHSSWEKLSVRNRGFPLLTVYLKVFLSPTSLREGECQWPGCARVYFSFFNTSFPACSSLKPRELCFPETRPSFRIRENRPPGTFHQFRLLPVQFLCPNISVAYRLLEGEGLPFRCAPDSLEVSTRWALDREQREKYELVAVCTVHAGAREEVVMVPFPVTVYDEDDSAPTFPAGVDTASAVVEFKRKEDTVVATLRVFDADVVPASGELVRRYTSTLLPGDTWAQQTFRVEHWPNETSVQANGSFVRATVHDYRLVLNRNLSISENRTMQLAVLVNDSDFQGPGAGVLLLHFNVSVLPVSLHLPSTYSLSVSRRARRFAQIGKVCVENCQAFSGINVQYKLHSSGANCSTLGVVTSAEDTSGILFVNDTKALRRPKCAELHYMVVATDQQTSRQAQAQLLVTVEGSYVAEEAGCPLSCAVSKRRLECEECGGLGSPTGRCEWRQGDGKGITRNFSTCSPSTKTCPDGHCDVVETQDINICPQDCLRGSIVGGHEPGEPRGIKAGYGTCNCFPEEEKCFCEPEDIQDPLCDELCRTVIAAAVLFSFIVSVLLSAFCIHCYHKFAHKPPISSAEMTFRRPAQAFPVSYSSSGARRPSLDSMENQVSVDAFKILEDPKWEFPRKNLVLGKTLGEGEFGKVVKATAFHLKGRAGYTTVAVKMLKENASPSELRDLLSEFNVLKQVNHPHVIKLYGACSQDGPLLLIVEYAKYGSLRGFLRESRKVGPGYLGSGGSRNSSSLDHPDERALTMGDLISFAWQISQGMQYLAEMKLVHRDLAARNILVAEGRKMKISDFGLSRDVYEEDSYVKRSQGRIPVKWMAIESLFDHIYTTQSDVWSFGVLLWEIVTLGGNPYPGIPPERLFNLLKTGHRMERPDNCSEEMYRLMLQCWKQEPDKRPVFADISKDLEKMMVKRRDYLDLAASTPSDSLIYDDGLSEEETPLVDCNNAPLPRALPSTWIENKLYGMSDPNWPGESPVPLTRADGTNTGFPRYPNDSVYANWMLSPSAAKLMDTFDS
T6 sequence (P08631 whole entry, the tested form may be a part): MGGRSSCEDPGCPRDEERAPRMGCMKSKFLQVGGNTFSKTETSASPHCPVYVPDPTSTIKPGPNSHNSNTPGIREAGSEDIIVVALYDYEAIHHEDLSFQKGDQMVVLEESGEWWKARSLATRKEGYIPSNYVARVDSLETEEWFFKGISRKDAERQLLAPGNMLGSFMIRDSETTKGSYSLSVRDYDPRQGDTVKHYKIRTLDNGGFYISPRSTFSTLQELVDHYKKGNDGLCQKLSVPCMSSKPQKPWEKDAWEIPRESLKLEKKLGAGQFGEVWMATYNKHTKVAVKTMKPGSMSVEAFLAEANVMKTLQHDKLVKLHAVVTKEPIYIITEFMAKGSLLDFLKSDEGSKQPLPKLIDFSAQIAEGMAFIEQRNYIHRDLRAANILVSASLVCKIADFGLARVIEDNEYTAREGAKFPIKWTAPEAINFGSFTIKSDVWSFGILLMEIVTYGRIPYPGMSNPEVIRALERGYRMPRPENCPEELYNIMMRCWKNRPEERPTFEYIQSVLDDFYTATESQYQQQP
T3 sequence (P06241 whole entry, species assumed, the tested form may be a part): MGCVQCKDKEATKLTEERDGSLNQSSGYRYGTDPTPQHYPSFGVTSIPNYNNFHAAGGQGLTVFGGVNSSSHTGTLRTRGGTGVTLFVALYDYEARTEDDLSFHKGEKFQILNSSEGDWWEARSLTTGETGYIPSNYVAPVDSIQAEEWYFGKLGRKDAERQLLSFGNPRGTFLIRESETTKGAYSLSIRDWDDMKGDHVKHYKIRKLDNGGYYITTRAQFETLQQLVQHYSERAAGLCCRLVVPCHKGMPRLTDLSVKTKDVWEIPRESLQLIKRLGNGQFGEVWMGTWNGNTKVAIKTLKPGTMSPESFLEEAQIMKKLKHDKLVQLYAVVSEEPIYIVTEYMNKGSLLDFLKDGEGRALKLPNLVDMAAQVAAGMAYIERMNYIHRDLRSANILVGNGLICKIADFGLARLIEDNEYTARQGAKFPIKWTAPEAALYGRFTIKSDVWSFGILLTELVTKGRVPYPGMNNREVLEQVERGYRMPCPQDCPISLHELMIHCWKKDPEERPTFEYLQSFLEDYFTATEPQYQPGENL

SMILES	IC50 (Lyn)	IC50 (Src)	IC50 (Fyn)	IC50 (Flt-1)	IC50 (EPHB4)	IC50 (Hck-1)	IC50 (ErbB4)	IC50 (Ret-1)	IC50 (FGFR1)	IC50 (Lck)	IC50 (Zap-70)	IC50 (Itk)	IC50 (EGFR)	IC50 (ErbB2)	IC50 (Kdr)	IC50 (Tek)	IC50 (c-Met)	IC50 (AKT)	IC50 (IGFR-1)	IC50 (PDGFRB)
COc1cc(Nc2ncnc(-n3c(N)nc4cc([N+](=O)[O-])ccc43)n2)cc(OC)c1OC [Compound 294]	> 10.3 µM	> 10.3 µM	> 10.3 µM	> 10.3 µM	0.912 to 5.47 µM	> 10.3 µM	> 10.3 µM	0.912 to 5.47 µM	> 10.3 µM											
COc1cc(Nc2ncnc(-n3c(N)nc4cc(C(F)(F)F)ccc43)n2)cc(OC)c1OC [Compound 292]	0.867 to 5.2 µM	0.867 to 5.2 µM	5.2 to 7.59 µM	0.867 to 5.2 µM	0.867 to 5.2 µM	> 9.75 µM	> 9.75 µM	0.867 to 5.2 µM	7.59 to 9.75 µM											
COc1cc(Nc2ncnc(-n3c(N)nc4cc(Cl)ccc43)n2)cc(OC)c1OC [Compound 296]	0.935 to 5.61 µM	0.935 to 5.61 µM	5.61 to 8.18 µM	0.935 to 5.61 µM	< 0.935 µM	> 10.5 µM	8.18 to 10.5 µM	< 0.935 µM	0.935 to 5.61 µM											
CCN(CC)CCOc1ccc(Nc2ncnc(-n3c(N)nc4ccccc43)n2)cc1OC [Compound 652]	0.892 to 5.35 µM	0.892 to 5.35 µM	> 10 µM	0.892 to 5.35 µM		> 10 µM	> 10 µM	< 0.892 µM	< 0.892 µM	< 0.892 µM	> 10 µM	0.892 to 5.35 µM	> 10 µM	5.35 to 7.8 µM	< 0.892 µM	0.892 to 5.35 µM	0.892 to 5.35 µM	> 10 µM	< 0.892 µM	0.892 to 5.35 µM
COc1cc(Nc2ncnc(-n3c(NCc4ccccn4)nc4ccccc43)n2)cc(OC)c1OCCn1ccnn1 [Compound 942]	< 0.707 µM	> 7.96 µM	> 7.96 µM	< 0.707 µM		> 7.96 µM	> 7.96 µM	< 0.707 µM	< 0.707 µM	4.24 to 6.19 µM	> 7.96 µM	> 7.96 µM	> 7.96 µM	> 7.96 µM	< 0.707 µM	> 7.96 µM	> 7.96 µM	> 7.96 µM	4.24 to 6.19 µM	< 0.707 µM
COc1cc(Nc2ncnc(Nc3ccc(Cl)c4ccccc34)n2)cc(OC)c1OC [Compound 1031]	0.913 to 5.48 µM	5.48 to 7.99 µM	> 10.3 µM	> 10.3 µM		> 10.3 µM	> 10.3 µM	0.913 to 5.48 µM	0.913 to 5.48 µM	0.913 to 5.48 µM	> 10.3 µM	> 10.3 µM	< 0.913 µM	0.913 to 5.48 µM	5.48 to 7.99 µM	> 10.3 µM	> 10.3 µM	> 10.3 µM	0.913 to 5.48 µM	< 0.913 µM
